These results are taken from patent US20120283303A1, “USE OF N-AMINOIMIDAZOLE CYTOPROTECTIVE COMPOUNDS FOR TREATING CELL DEATH AND/OR GSK-3 MEDIATED DISEASES” (K.U.LEUVEN RESEARCH AND DEVELOPMENT, priority 2006, published 2012).

The test system of series [1] is motor neurons. As to the kind of experiment: Basal survival of motor neurons in monoculture. The format is cell-based, Wistar rats. On the procedure:
(§1) Cell cultures: Primary motor neuron cultures were prepared from Wistar rats as follows. Spinal cords were dissected from E14 embryos and collected in Hanks' Balanced Salt Solution (HBSS; Gibco Invitrogen, Grand Island, N.Y). Ventral cords were minced and digested for 15 minutes at 37° C. in 0.05% trypsin in HBSS. The solution was then replaced with medium A (L15 (Sigma, St.-Louis, Mo.) supplemented with glucose, progesterone, insulin, putrescine, conalbumin, sodium selenite, penicillin, streptomycin and 2% horse serum) containing 0.4% BSA and 20 μg/ml DNase and the tissue was dissociated by trituration. The resulting single cell suspension was layered on a 6.8% (weight/volume in L15) optiprep cushion (one spinal cord per tube) and centrifuged at 500 g for 15 minutes. […] To remove debris, both fractions were resuspended in medium A and centrifuged for 20 minutes at 75 g on a 4% BSA cushion. For co-cultures, 30,000 motor neurons of the F1 fraction were seeded on a glial feeder layer. Glial feeder layers were prepared by plating F2 cells in 35 mm dishes. After 4 weeks in vitro, cell division was halted by exposure to 10^−5 M cytosine arabinoside. For monocultures, 45,000 motor neurons were seeded in 35 mm dishes.
Immunocytochemistry: Cell cultures were washed and fixed in cooled paraformadehyde 4% for 30 minutes. After three washes, cells were incubated in blocking solution (10% normal serum in phosphate buffered saline (PBS)) for 1 hour. Monoclonal anti-SMI-32 ( 1/10,000, Sternberger Monoclonal Inc., Luthersville, Md.) and goat anti-GFAP ( 1/10,000, Dako, Denmark) were incubated overnight in 1% normal serum in PBS. Secondary antibodies used were goat anti-mouse IgG Alaxa555 ( 1/500, Molecular Probes, Eugene, Oreg.) and donkey anti-goat FITC ( 1/500, Jackson ImmunoResearch, West Grove, Pa.).
Exposure experiments: After 1 day in culture NAIM was added to the culture medium at different concentrations. All other compounds were also added after 24 hours in culture. When culture medium was replaced, only half of the medium was taken and replaced by fresh medium, in which all different compounds were substituted as to maintain the initial concentration. In the experiment in which the effect of fresh medium was evaluated, the culture medium was replaced in total every day. […]
In order to determine whether the effect of NAIM was mediated through the secretion of a soluble factor in the medium by the underlying astroglial feeder layer, we prepared monocultures in which only motor neurons were present. […] In order to determine whether the protective effect of the compound was dose-dependent, we conducted a dose-response study, in which cultures were treated with different concentrations of NAIM from day 1 off and cell survival was assessed on day 5.

The test system of series [2] is motor neurons. As to the kind of experiment: Basal survival of motor neurons in co-culture on glial feeder layer. The series is classed as cell-based, Wistar rats. The note with it: FIG. 1A. On the procedure: as §1, with “For monocultures, 45,000 motor neurons were seeded in 35 mm dishes.” left out
Exposure experiments: After 1 day in culture NAIM was added to the culture medium at different concentrations. […] In the experiment in which the effect of fresh medium was evaluated, the culture medium was replaced in total every day. […]

Series [3] concerns Peripheral blood mononuclear cells (PBMCs). As to the kind of experiment: PBMC survival (viable cell count, trypan blue exclusion). The series is classed as cell-based, human. On the procedure:
Peripheral blood mononuclear cells (PBMCs) from healthy donors were isolated by density centrifugation (Lymphoprep; Nycomed Pharma, AS Diagnostics, Oslo, Norway). For the “non-stimulated” conditions (NS) the cells were cultivated at a density of 1,750,000 cells per ml in RPMI-1640 supplemented with 2 mM L-glutamine, 15% FCS and 0.1% NaHCO3 for 3 days. […] At day 0 of the experiment, the NS and activated cells (PHA-stimulated blasts) were washed with PBS and were pelleted by centrifugation. […] The number of viable cells was counted based on the trypan blue exclusion method. The evolution of the number of cells was followed over a period of approximately 2 weeks.

Another series has as its target T1, P/CAF (H4 peptide) (Homo sapiens, UniProt Q92831).
T1 construct: purchased Upstate Biotechnology
The experiment in a line: Radiometric enzyme activity assay, P/CAF (H4 peptide). The format is biochemical. The conditions noted are these: 5 μg/ml NR-818, 10 μM ATP. The procedure:
(§2) GSK-3 were assayed for their ability to phosphorylate the appropriate peptide/protein substrate in the presence of 5 μg/ml NR-818 and 10 μM ATP. Using the direct radiometric approach, kinase activities were determined and expressed as % activity compared to the untreated control (Upstate Biotechnology, Lake Placid, N.Y.). Activities are given as the mean of duplicate determinations relative to control incubations in which the inhibitor was substituted with DMSO. In the following table 1 providing results for NR818, the following abbreviations are used: • CDK, cyclin-dependent kinase; • CK, casein kinase; • eEF-2K, eukaryotic elongation factor-2 kinase; • JNK, c-Jun N-terminal kinase; • MAPK, mitogen-activated protein kinase; • PKC, protein kinase C; and • PI 3-kinase, phosphatidylinositol 3-kinase.

Another series addresses T2, p300 (H4 peptide) (Homo sapiens, UniProt Q09472).
T2 construct: purchased Upstate Biotechnology
The experiment in a line: Radiometric enzyme activity assay, p300 (H4 peptide). The note with it: 5 μg/ml NR-818, 10 μM ATP. The format is biochemical. On the procedure:
as §2

The next series concerns the target T3, P/CAF (H3 peptide) (Homo sapiens, UniProt Q92831).
T3 construct: purchased Upstate Biotechnology
As to the kind of experiment: Radiometric enzyme activity assay, P/CAF (H3 peptide). The format is biochemical. The note with it: 5 μg/ml NR-818, 10 μM ATP. The procedure: as §2

Series [4] in a line: Diabetic mouse glucose tolerance test. The format is in vivo, mice. The note with it: subcutaneously, 30 mg/kg. The text has this: NR818 is formulated and tested in the diabetic mouse glucose tolerance test as described in example 269 of U.S. Pat. No. 6,489,344.
Another series has as its system CK1. The experiment in a line: Radiometric kinase activity assay. The series is classed as biochemical. The conditions noted are these: 5 μg/ml NR-818, 10 μM ATP. On the procedure: as §2
Another series concerns the target T4, CDK2/cyclinE (Homo sapiens, UniProt P24941).
T4 construct: purchased Upstate Biotechnology
The experiment in a line: Radiometric kinase activity assay. The series is classed as biochemical. The note with it: 5 μg/ml NR-818, 10 μM ATP. The procedure:
as §2

The next series deals with T5, eEF-2K (Homo sapiens, UniProt O00418).
T5 construct: purchased Upstate Biotechnology
As to the kind of experiment: Radiometric kinase activity assay. The format is biochemical. The note with it: 5 μg/ml NR-818, 10 μM ATP. The procedure: as §2

A further series has as its target T6, MAPK2 (Homo sapiens, UniProt P28482).
T6 construct: purchased Upstate Biotechnology
As to the kind of experiment: Radiometric kinase activity assay. The format is biochemical. The note with it: 5 μg/ml NR-818, 10 μM ATP. The procedure:
as §2

The target in another series is T7, CDK2/cyclinA (Homo sapiens, UniProt P24941).
T7 construct: purchased Upstate Biotechnology
As to the kind of experiment: Radiometric kinase activity assay. The format is biochemical. The note with it: 5 μg/ml NR-818, 10 μM ATP. The procedure:
as §2

A further series has as its target T8, PI 3-kinaseδ (Homo sapiens, UniProt O00329).
T8 construct: purchased Upstate Biotechnology, Lake Placid, N.Y
The experiment in a line: Radiometric kinase activity assay. The series is classed as biochemical. The note with it: 5 μg/ml NR-818, 10 μM ATP. On the procedure: as §2

For the next series, the target named is T9, MAPK1 (Homo sapiens, UniProt P27361).
T9 construct: purchased Upstate Biotechnology
As to the kind of experiment: Radiometric kinase activity assay. The note with it: 5 μg/ml NR-818, 10 μM ATP. The series is classed as biochemical. On the procedure:
as §2

T8 sequence (O00329 whole entry): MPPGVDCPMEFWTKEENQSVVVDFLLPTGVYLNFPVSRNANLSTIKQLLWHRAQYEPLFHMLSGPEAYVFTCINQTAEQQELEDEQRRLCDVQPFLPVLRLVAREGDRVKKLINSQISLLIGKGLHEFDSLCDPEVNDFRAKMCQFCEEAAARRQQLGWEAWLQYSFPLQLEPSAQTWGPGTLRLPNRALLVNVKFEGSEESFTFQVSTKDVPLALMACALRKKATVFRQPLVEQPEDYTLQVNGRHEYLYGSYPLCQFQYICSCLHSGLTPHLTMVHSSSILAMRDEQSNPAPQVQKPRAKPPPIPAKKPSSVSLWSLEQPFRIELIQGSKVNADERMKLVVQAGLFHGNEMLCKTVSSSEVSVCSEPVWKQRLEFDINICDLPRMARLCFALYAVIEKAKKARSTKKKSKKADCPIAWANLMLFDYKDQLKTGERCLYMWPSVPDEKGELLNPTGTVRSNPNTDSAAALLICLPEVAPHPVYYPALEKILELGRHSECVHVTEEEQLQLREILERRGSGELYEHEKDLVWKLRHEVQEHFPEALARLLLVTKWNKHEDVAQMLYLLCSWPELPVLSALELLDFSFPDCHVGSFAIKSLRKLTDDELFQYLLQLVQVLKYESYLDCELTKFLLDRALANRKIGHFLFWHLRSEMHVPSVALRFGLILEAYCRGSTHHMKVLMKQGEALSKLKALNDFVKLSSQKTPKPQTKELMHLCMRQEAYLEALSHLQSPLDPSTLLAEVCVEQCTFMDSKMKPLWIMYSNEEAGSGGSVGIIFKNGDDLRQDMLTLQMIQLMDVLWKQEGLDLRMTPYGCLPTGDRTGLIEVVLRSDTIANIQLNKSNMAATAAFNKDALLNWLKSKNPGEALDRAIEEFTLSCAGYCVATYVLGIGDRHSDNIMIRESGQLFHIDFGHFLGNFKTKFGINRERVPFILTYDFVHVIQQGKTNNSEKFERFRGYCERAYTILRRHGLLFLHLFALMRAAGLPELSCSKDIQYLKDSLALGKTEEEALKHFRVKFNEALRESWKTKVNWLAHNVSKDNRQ
T8 sequence (P27986 whole entry partner): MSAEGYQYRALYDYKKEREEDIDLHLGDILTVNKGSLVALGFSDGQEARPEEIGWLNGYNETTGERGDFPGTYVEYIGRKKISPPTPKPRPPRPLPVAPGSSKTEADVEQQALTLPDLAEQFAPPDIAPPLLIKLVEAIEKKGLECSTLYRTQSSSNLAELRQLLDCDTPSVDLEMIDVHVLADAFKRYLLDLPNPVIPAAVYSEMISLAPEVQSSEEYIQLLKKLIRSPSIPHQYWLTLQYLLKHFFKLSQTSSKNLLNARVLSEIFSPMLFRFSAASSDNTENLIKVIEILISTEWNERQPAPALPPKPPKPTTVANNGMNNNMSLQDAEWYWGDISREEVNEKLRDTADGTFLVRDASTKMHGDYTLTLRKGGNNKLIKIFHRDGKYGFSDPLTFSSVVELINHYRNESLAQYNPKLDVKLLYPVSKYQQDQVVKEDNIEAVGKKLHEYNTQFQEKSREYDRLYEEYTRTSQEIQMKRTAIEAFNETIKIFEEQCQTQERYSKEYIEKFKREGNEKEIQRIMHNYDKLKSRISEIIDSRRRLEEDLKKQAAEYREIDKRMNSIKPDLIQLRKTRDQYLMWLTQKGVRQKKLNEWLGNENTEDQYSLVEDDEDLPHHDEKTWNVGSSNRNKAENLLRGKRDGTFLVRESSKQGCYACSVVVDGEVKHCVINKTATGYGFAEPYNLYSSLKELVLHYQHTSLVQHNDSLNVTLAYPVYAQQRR
T2 sequence (Q09472 whole entry): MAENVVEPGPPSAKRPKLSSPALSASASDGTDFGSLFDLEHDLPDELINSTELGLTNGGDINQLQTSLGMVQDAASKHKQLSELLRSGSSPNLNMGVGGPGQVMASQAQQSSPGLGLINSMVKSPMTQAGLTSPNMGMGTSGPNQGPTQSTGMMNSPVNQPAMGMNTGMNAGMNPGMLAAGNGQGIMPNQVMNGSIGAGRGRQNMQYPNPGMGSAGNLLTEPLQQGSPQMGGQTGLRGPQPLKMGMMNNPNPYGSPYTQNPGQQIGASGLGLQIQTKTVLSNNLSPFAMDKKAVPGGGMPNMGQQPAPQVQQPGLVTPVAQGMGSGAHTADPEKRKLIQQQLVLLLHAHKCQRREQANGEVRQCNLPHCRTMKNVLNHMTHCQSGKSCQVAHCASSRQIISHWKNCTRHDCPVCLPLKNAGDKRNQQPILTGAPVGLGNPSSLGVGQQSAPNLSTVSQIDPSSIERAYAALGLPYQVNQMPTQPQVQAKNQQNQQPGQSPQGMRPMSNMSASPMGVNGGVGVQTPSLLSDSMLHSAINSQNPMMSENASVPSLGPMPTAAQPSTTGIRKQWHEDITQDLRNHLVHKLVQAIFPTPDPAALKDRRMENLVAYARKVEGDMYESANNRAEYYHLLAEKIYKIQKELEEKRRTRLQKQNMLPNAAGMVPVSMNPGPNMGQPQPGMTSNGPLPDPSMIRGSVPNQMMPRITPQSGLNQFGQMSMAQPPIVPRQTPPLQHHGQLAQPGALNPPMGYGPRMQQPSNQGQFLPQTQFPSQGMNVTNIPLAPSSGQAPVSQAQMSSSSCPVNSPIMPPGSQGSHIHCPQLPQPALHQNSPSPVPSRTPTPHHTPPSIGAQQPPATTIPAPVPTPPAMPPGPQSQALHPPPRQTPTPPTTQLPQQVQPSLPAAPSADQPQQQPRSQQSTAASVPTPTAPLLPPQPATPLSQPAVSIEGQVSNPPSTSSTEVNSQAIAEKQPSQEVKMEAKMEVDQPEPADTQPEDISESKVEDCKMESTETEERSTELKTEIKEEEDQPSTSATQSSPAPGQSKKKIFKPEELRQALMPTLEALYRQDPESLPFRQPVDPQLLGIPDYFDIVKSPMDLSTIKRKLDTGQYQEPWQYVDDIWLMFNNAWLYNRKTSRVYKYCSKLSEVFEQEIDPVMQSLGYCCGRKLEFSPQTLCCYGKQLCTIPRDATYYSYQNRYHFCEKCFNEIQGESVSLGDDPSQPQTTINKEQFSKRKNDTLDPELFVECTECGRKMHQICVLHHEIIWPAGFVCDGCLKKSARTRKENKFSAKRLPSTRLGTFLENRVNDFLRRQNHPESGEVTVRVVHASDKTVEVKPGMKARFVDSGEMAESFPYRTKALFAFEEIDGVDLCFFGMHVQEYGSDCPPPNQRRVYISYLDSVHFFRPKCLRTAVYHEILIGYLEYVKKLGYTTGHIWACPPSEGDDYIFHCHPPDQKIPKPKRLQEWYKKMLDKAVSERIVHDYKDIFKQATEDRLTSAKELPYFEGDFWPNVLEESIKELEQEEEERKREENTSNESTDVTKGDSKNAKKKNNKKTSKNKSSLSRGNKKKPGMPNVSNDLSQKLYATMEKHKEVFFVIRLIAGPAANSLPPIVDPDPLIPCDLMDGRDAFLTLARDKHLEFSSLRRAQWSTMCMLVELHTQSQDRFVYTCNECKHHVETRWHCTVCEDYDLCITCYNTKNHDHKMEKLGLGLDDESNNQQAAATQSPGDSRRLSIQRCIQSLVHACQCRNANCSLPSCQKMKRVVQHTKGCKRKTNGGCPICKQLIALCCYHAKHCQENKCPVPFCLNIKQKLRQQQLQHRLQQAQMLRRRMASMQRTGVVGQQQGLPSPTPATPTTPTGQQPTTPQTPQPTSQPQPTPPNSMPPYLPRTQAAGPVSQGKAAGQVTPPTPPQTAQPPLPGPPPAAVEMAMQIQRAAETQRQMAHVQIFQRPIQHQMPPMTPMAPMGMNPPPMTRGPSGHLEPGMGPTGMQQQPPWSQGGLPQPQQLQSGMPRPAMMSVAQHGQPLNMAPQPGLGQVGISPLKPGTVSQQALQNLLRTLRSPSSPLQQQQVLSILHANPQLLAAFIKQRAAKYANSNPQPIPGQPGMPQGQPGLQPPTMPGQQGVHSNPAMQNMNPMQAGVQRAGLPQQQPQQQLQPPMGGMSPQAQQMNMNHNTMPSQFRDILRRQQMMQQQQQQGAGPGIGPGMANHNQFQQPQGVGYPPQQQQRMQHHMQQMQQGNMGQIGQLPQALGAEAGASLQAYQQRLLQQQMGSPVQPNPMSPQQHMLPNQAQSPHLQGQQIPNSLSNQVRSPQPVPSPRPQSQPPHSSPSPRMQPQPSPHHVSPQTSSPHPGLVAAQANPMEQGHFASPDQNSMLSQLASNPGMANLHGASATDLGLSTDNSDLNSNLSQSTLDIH
T9 sequence (P27361 whole entry): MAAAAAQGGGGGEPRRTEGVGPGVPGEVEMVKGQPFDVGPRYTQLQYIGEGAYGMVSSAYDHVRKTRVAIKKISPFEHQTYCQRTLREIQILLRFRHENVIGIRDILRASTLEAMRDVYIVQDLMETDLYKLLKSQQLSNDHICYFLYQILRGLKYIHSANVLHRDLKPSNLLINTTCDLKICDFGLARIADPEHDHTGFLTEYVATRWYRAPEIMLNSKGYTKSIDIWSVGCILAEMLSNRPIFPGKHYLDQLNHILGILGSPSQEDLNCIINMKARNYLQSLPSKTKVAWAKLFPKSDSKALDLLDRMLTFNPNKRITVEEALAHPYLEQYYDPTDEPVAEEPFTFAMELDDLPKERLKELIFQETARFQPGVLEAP
T6 sequence (P28482 whole entry): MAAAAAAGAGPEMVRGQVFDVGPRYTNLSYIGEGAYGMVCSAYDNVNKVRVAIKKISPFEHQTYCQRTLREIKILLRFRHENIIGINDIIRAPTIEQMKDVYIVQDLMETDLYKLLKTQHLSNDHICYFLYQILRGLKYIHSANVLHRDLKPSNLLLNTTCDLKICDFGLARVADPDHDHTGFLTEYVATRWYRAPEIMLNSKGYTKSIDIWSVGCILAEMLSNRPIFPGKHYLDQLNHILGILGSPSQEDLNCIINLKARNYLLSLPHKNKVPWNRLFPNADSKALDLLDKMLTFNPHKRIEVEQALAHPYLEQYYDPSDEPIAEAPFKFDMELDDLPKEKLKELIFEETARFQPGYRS

With `Cc1nc(S)n(Nc2cccc3ccccc23)c1-c1ccccc1` [HER/NR818, 4-Methyl-1-(naphthalen-1-ylamino)-5-phenyl-1,3-dihydro-imidazole-2-thione], in the series with motor neurons [1] (medium replaced every day, FIG. 3), the “effect of daily medium replacement on protective properties” value is reported as “no effect on the protective properties”. Besides, the “basal survival of motor neurons” value in the series on motor neurons [1] (monoculture, FIG. 1B) was “significant increase of the basal survival”; with motor neurons [2], “significant increase in the basal survival”. Besides, in the series with motor neurons [1] (monoculture, survival on day 5, FIG. 4), the “protective effect in combination with IL-2, IL-2-receptor blocking antibody or GM-CSF” value is on record as “not influenced by either of the added compounds”. For the same compound, in the series on motor neurons [1] (monocultures, dose-response, treated from day 1, survival assessed on day 5, FIG. 2), the “optimal concentration for motor neuron survival” value was 1 µg/mL. The “PBMC cell count, NAIM combined with IL-2” value in series [3] (IL-2 10 U/ml plus NAIM (NR818 2.5 μg/ml), stimulated and non stimulated cells, versus IL-2 only) is given as “enhanced”. In series [3] (NAIM alone, compared to control conditions), the “PBMC cell viability, NAIM as such” value is recorded as “did not affect the cell viability”. Moreover, the “Activity (% of control)” value on P/CAF (H4 peptide) is on record as 103 % of control; on p300 (H4 peptide), 100 % of control; on P/CAF (H3 peptide) it was 99 % of control; in the series with CK1, 106 % of control; at CDK2/cyclinE it was 101 % of control; on eEF-2K, 101 % of control. In addition, the “Activity (% of control)” value on MAPK2 is on record as 105 % of control; on CDK2/cyclinA, 87 % of control; at PI 3-kinaseδ, 89 % of control; at MAPK1 it was 104 % of control. The “basal hyperglycemia just prior to the glucose tolerance test” value in series [4] (diabetic mice) is given as “significant reduction”. The “glucose disposal following glucose challenge” value in [4] (diabetic mice) is given as “significantly improved”. Further, the “tissue penetrance in vivo” value in series [4] (mice) is “high”.
